From US20230149360A1, “ALPHA-2 ADRENERGIC RECEPTOR AGONISTS FOR THE PREVENTION AND/OR THE TREATMENT OF SPLEEN DISORDERS” (UNIVERSITÉ CATHOLIQUE DE LOUVAIN, priority 2020, published 2023)

What was measured:
[1] = tested on: C56BL/6 Adra2a KO mice implanted with MC38 colon carcinomas; assay: Tumor-induced splenomegaly, MC38 colon carcinomas in Adra2a KO mice; format: in vivo; details: 5 mg/kg i.p. daily from tumor size around 50 mm^3
Method: (§1) C56BL/6 Wildtype or C56BL/6 Adra2a KO mice were implanted with MC38 colon carcinomas and received daily injections of vehicle control, guanabenz or clonidine (5 mg/kg, i.p.) when the tumor size was around 50 mm^3, until the day of sacrifice. Spleen weight were taken at the time of mice dissection.

[2] = tested on: mice transplanted with JAK2V617F mutated bone marrow; assay: Splenomegaly induced by myelofibrosis (JAK2V617F mutated bone marrow transplantation); format: in vivo; details: for spleen weight (myelofibrosis-induced splenomegaly), prevention: treatment started one week after bone marrow transplantation, 5 mg/kg daily for three weeks; for spleen weight (myelofibrosis-induced splenomegaly), treatment: treatment started three weeks after bone marrow transplantation, splenomegaly already formed, 5 mg/kg daily for two weeks
C57BL/6 J wild-type mice = details: romiplostim 1 mg/kg s.c. days 1, 8, 15, 5 mg/kg i.p. daily for two weeks from day 8
Method: (§2) 8-week female C57BL/6 J wild-type and Adra2a KO mice were administered saline or 1 mg/kg of romiplostim by a subcutaneous injection into the neck skin on days 1, 8 and 15. Clonidine or guanabenz were administrated i.p. at a dose of 5 mg/kg daily for two weeks starting from day 8. Mice were dissected on day 22 and spleen weight were measured. After killing, peripheral blood was drawn by cardiac puncture, the platelet concentration was measured by Cell Counter Analyzer MS9-5V.

Adra2a KO mice = details: romiplostim 1 mg/kg s.c. days 1, 8, 15, 5 mg/kg i.p. daily for two weeks from day 8
Method: as §2

TiRP-tumor bearing mice = TiRP-tumor bearing mice with ACT of 10 million P1A-specific CD8+ T cells; each drug 5 mg/kg i.p. daily from tumor size around 500 mm^3
TiRP tumor bearing mice = assay: Tumor-induced splenomegaly in TiRP tumor bearing mice (spleen weight); format: in vivo; details: 5 mg/kg i.p. daily from tumor size around 500 mm^3 until sacrifice
Source text: TiRP mice have been created by crossing Ink4a/Arf^flox/flox mice with mice carrying a transgenic construct controlled by the tyrosinase promoter and driving the expression of H-Ras^12V and Trap1a which encodes a MAGE-type tumor antigen […]; the promoter is separated from the coding region by a stop cassette made of a floxed self-deleting CreER (Huijbers et al., 2006, Cancer Res 66, 3278-3286). Those mice were backcrossed to a B10.D2 background and bred to homozygosity. TCR[…] mice heterozygous for the H-2Ld/[…]-43-specific TCR transgene were kept on the B10.D2;Rag1^-/- background ([…] et al., 2004, J Immunol 172, 5069-5077). DBA/2 mice and C57BL/6J mice were used in tumor transplantation and mice immunization experiments. All mice used in this study were produced under specific pathogen free (SPF) conditions at the animal facility of the de Duve Institute. All the rules concerning animal welfare have been respected according to the 2010/63/EU Directive. All procedures were performed with the approval of the local Animal Ethical Committee, with reference 2015/UCL/MD/15. A fresh solution of […]-Tamoxifen was prepared by dissolving […]-Tamoxifen ([…]®) in 100% ethanol and mineral oil (ratio 1:9) followed by 30 min sonication, and injected subcutaneously (2 mg/200 μL per mouse) in the neck area of gender-matched 7 weeks old TiRP mice. Tumor appearance was monitored daily and tumors were measured three times/week. Tumor volume (in mm^3) was calculated by the following formula: Volume=width^2×length/2. C57BL/6 mice were injected subcutaneously with 1 million B16F1 or B16F10 melanoma cells at an age between 6 to 8 weeks. The mice received daily injections of guanabenz (5 mg/kg, i.p.) or PBS when the tumor size was around 100 mm^3. Mice were sacrificed when the tumor in control group reached 1,000 mm^3. Spleen were isolated and weighted. […] TiRP tumor bearing mice received daily injections of clonidine (5 mg/kg, i.p.), romifidine (5 mg/kg, i.p.) or PBS when the tumor size was around 500 mm^3. […] Spleen were isolated and spleen weight was measured with an analytical balance.

[3] = tested on: C56BL/6 Wildtype mice implanted with MC38 colon carcinomas; assay: Tumor-induced splenomegaly, MC38 colon carcinomas in wildtype mice; format: in vivo; details: 5 mg/kg i.p. daily from tumor size around 50 mm^3
Method: as §1

[4] = tested on: BALB/c mice bearing CT26 colon carcinomas; assay: Splenomegaly in mice bearing CT26 colon carcinomas, agonist/antagonist evaluation; format: in vivo; details: each drug 5 mg/kg i.p. daily from tumor size around 50 mm^3
Method: B16F1, B16F10 melanoma cells, and CT26 colon carcinoma cells were cultured in IMDM medium supplemented with 10% Fetal bovine serum (FBS). […] For evaluation of phentolamine on the effect of clonidine and guanabenz, the mice were randomized into different groups when tumors size arrived around 50 mm^3 and received daily injections of guanabenz (5 mg/kg, i.p.), phentolamine (5 mg/kg, i.p.), propranolol (5 mg/kg, i.p.), a mix of guanabenz (5 mg/kg, i.p.) and phentolamin (5 mg/kg, i.p.), clonidine (5 mg/kg, i.p.), a mix of clonidine (5 mg/kg, i.p.) and phentolamin (5 mg/kg, i.p.), a mix of clonidine (5 mg/kg, i.p.) and propranolol (5 mg/kg, i.p.) or vehicle control. Tumor size was measured every 2 days and mice were sacrificed when the tumor in control group reached 1,000 mm^3. Spleen were isolated and spleen weight was measured with an analytical balance. Spleen from mice of same age without tumors were used as controls.

[5] = tested on: flatworm-induced splenomegaly (schistosomiasis); details: cited from earlier work
C57BL/6J mice = assay: Splenomegaly induced by protein-mediated (Ovalbumin) immunization; format: in vivo; details: 5 mg/kg 2 hours before and daily after immunization, one week
Method: C57BL/6J mice were immunized once by intraperitoneal (i.p.) injection of 200 μg of OVA protein adsorbed onto Alhydrogel adjuvant 2% (Sigma Aldrich®). These mice were administered 100 μg (5 mg/kg) of guanabenz 2 hours before the immunization and daily after the immunization. […] One week after the immunization, mice were sacrificed, the spleen of each mouse was collected, and spleen weight was measured with an analytical balance.

[6] = tested on: B16F10 tumor-bearing mice; assay: Tumor-induced splenomegaly in B16F10 tumor-bearing mice (spleen weight); format: in vivo; details: 5 mg/kg i.p. daily from tumor size around 100 mm^3
Method: (§3) B16F1, B16F10 melanoma cells, and CT26 colon carcinoma cells were cultured in IMDM medium supplemented with 10% Fetal bovine serum (FBS). C57BL/6 mice were injected subcutaneously with 1 million B16F1 or B16F10 melanoma cells at an age between 6 to 8 weeks. The mice received daily injections of guanabenz (5 mg/kg, i.p.) or PBS when the tumor size was around 100 mm^3. Mice were sacrificed when the tumor in control group reached 1,000 mm^3. Spleen were isolated and weighted. […] TiRP tumor bearing mice received daily injections of clonidine (5 mg/kg, i.p.), romifidine (5 mg/kg, i.p.) or PBS when the tumor size was around 500 mm^3. Mice were sacrificed when the tumor in control group reached 1,500 mm^3. Spleen were isolated and spleen weight was measured with an analytical balance.

[7] = tested on: patient with obesity-related diseases, such as fatty liver; details: cited from earlier work
B16F1 tumor-bearing mice = assay: Tumor-induced splenomegaly in B16F1 tumor-bearing mice (spleen weight); format: in vivo; details: 5 mg/kg i.p. daily from tumor size around 100 mm^3
Method: as §3

DBA/2 mice = assay: Splenomegaly induced by virus-mediated (Chadox_li_P1A prime, MVA_P1A boost) immunization; format: in vivo; details: 5 mg/kg 2 hours before and daily after immunization, two weeks

Structure (SMILES): Clc1cccc(Cl)c1N=C1NCCN1 [clonidine]
- spleen weight (tumor-induced splenomegaly) [1]: no inhibition is observed
- spleen weight (myelofibrosis-induced splenomegaly), prevention [2]: significantly reduced the splenomegaly
- spleen weight (myelofibrosis-induced splenomegaly), treatment [2]: significantly reduced the splenomegaly
- spleen weight (romiplostim-induced splenomegaly) (C57BL/6 J wild-type mice): significantly reduced the splenomegaly
- spleen weight (romiplostim-induced splenomegaly) (Adra2a KO mice): not in Adra2a KO mice
- spleen weight / spleen size (TiRP-tumor bearing mice): reduced spleen size
- spleen weight (tumor-induced splenomegaly) (TiRP tumor bearing mice): TiRP tumor-induced splenomegaly is inhibited
- spleen weight (tumor-induced splenomegaly) [3]: inhibit tumor-induced splenomegaly
- spleen weight / spleen size [4]: reduced the spleen size

Structure (SMILES): CN1C[C@H](C(=O)N[C@]2(C)O[C@@]3(O)[C@@H]4CCCN4C(=O)[C@H](Cc4ccccc4)N3C2=O)C=C2c3cccc4[nH]cc(c34)C[C@H]21 [ergotamine]
- splenomegaly [5]: reduced flatworm-induced splenomegaly

Structure (SMILES): N=C(N)N/N=C/c1c(Cl)cccc1Cl [guanabenz]
- spleen weight (tumor-induced splenomegaly) [1]: no inhibition is observed
- spleen weight (immunization-induced splenomegaly) (C57BL/6J mice): inhibits splenomegaly
- spleen weight (tumor-induced splenomegaly) [6]: can reverse the tumor-induced splenomegaly
- weight of the spleen [7]: promoting a decrease in the weight of the spleen
- spleen weight (myelofibrosis-induced splenomegaly), prevention [2]: significantly reduced the splenomegaly
- spleen weight (myelofibrosis-induced splenomegaly), treatment [2]: significantly reduced the splenomegaly
- spleen weight (tumor-induced splenomegaly) (B16F1 tumor-bearing mice): can reverse the tumor-induced splenomegaly
- spleen weight (tumor-induced splenomegaly) (TiRP tumor bearing mice): can reverse the tumor-induced splenomegaly
- spleen weight (immunization-induced splenomegaly) (DBA/2 mice): inhibits splenomegaly
- spleen weight (tumor-induced splenomegaly) [3]: inhibit tumor-induced splenomegaly
- spleen weight / spleen size [4]: reduced the spleen size

Structure (SMILES): Fc1cccc(Br)c1NC1=NCCN1 [romifidine]
- spleen weight (tumor-induced splenomegaly) (TiRP tumor bearing mice): TiRP tumor-induced splenomegaly is inhibited
